Reference: patent US20230210790A1, “GEL FOR USE IN GASTROINTESTINAL ENDOSCOPY AND ENDODERMAL, EPIDERMAL, AND OTHER MUCOSAL USES” (The Johns Hopkins University, priority 2020, published 2023)

Test system: bleeding ulcers in a live porcine model
Assay: In vivo bleeding control by injectable gel, porcine bleeding model
Design: species or system Yorkshire pigs
Settings: 5 mL injected adjacent to bleeding ulcer
Protocol: To test the efficacy of epinephrine gels for bleeding control, a porcine bleeding model was created.
After ulcer creation, gel formulations or saline (negative control), epinephrine 1:10,000 (positive control) of 5 mL each were injected adjacent to the bleeding ulcer.

CNC[C@H](O)c1ccc(O)c(O)c1 [Epinephrine 1:10,000, Epinephrine]
No: Time at 5 min, bleeding present | Time at 10 min, bleeding present | Time at 15 min, bleeding present
